In ChEMBL document CHEMBL2401704, “Inhibition of rhodesain as a novel therapeutic modality for human African trypanosomiasis” (J Med Chem, 2013):
Residues, ends and D or L forms follow the SMILES beside them. *: point of attachment. Cbz = O=C(OCc1ccccc1)*; CHN2 = [N-]=[N+]=C*

What was measured:
Trypanosoma brucei [1] = assay: Inhibition of Trypanosoma brucei rhodesain assessed as second order rate constant
Trypanosoma brucei [2] = assay: Antitrypanosomal activity against Trypanosoma brucei; type: functional, organism-based
[3] = Inhibition of Trypanosoma brucei rhodesain
[4] = Inhibition of Trypanosoma brucei recombinant rhodesain
[5] = system: Trypanosoma brucei brucei; assay: Antitrypanosomal activity against blood stream form of Trypanosoma brucei brucei; type: functional, organism-based; settings: for EC50: read-out: ED50 (the source's name)
Cruzipain = Cruzipain (Trypanosoma cruzi, UniProt P25779); assay: Inhibition of Trypanosoma cruzi cruzain
Papain = target: T1, Papain (Carica papaya, UniProt P00784); assay: Inhibition of papaya papain
T1 sequence (P00784 whole entry): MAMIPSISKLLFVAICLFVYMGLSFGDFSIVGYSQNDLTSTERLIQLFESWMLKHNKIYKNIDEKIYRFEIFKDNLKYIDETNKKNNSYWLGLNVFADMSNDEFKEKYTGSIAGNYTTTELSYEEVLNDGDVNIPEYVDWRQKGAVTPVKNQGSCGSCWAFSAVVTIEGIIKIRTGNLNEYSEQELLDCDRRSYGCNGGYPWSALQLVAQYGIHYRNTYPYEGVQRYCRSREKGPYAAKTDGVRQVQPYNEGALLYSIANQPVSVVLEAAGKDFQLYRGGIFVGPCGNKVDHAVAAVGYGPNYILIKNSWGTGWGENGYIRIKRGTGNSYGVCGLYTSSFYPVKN

[6] = Inhibition of cathepsin B (unknown origin); parameters: species or system Homo sapiens
Trypsin = Trypsin (Homo sapiens, UniProt P07477+P07478+P35030); assay: Inhibition of trypsin (unknown origin); type: protein assay
[7] = Inhibition of Plasmodium falciparum Falcipain 2
L6 = assay: Cytotoxicity against rat L6 cells; type: cell-based
[8] = system: Trypanosoma brucei rhodesiense; assay: Antitrypanosomal activity against Trypanosoma brucei rhodesiense; type: functional, organism-based
Plasmodium falciparum = assay: Antiprotozoal activity against Plasmodium falciparum; type: functional, organism-based
Rhodesain = Rhodesain (Trypanosoma brucei rhodesiense, UniProt Q95PM0); assay: Inhibition of Trypanosoma brucei rhodesiense rhodesain
[9] = system: Trypanosoma brucei brucei; assay: Antitrypanosomal activity against procyclic form of Trypanosoma brucei brucei; type: functional; settings: read-out: ED50 (the source's name)
[10] = system: Trypanosoma brucei brucei; assay: Antitrypanosomal activity against Trypanosoma brucei brucei; type: functional, organism-based

Sequence of Cruzipain (P25779 whole entry): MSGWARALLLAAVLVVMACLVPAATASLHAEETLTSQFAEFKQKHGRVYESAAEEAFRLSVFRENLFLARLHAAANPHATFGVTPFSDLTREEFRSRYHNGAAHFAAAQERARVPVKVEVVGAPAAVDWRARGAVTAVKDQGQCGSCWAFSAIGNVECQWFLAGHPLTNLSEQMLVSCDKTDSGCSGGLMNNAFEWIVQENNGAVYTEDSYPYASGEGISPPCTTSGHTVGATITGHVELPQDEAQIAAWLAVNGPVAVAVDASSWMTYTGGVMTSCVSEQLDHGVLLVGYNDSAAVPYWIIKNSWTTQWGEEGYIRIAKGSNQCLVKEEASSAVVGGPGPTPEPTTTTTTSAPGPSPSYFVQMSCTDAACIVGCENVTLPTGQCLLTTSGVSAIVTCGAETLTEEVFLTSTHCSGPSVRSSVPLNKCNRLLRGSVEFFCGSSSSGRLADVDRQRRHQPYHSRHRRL
Sequence of Rhodesain (Q95PM0 whole entry): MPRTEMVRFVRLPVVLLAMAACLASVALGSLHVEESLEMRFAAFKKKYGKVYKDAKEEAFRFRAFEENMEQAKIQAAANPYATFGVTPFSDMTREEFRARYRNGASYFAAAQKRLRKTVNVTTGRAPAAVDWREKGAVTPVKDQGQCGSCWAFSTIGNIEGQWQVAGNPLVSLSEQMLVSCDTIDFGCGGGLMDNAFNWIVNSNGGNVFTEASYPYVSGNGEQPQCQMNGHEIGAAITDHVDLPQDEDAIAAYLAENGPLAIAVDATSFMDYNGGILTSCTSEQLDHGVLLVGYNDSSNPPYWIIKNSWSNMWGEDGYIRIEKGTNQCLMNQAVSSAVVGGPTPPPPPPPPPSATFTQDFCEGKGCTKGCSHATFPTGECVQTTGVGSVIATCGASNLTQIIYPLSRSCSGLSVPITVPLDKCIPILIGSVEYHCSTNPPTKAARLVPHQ

For `O=C(N[C@@H](Cc1ccccc1)C(=O)N[C@H](/C=C/S(=O)(=O)Oc1ccccc1)CCc1ccccc1)OCc1ccccc1`, the K (Trypanosoma brucei [1]) was 3.48 ×10⁸ /M/min.

Molecule `C/C(=N\N=C(\N)S)c1cccc(Br)c1` has an IC50 (Trypanosoma brucei [2]) of over 20 µM and an IC50 [3] of 50 nM.

`CC(C)[C@H](NC(=O)c1ccc2c(c1)OCCO2)C(=O)N(C)N(C#N)CCCc1ccccc1` gave an IC50 [4] of 54 nM.

Work on `CN(C#N)N(C)C(=O)[C@H](Cc1ccccc1)NC(=O)OCc1ccccc1` yielded an IC50 [4] of 0.4 nM.

`[N-]=[N+]=CC(=O)[C@H](Cc1ccccc1)NC(=O)[C@H](Cc1ccccc1)NC(=O)OCc1ccccc1` (Cbz-Phe-Phe-CHN2) showed an IC50 [5] of 4.8 µM.

In the case of `CC(C)[C@H](NC(=O)c1ccc2c(c1)OCCO2)C(=O)N(C)N(C)C#N`, the IC50 [4] is reported as 5.4 nM.

Work on `CCCc1c(NC(=O)Nc2ccc(OC(F)(F)F)cc2)cnn1-c1ccc(Cl)cc1` yielded an IC50 (Cruzipain) of under 10 µM and an IC50 [3] of under 10000 nM.

Work on `O=C(NC(=S)Nc1ccc(O)cc1)c1sc2ccccc2c1Cl` yielded an IC50 (Cruzipain) of under 10 µM and an IC50 [3] of under 10000 nM.

Molecule `CCOC(=O)c1ccc(NC(=S)NC(=O)c2ccc(Cl)c(Cl)c2)cc1` has an IC50 (Papain) of over 50 µM, an IC50 [6] of 10.7 µM and an IC50 (Cruzipain) of 1.9 µM. For the same molecule, the IC50 (Trypsin) was over 50 µM and the IC50 [3] was 2000 nM.

In the case of `N#Cc1nc(N2CCOCC2)nc(N(Cc2cccc(C(F)(F)F)c2)C2C3CC4CC(C3)CC2C4)n1` (centres undefined), the Ki [7] is reported as 12900 nM, the IC50 (L6) is reported as 23.2 µM and the IC50 [8] is reported as 27.5 µM. For the same molecule, the IC50 (Plasmodium falciparum) was 1.1 µM.

Molecule `N#Cc1nc(N2CCOCC2)nc(N(c2ccccc2)c2ccccc2)n1` has a Ki [7] of 42 nM, an IC50 (L6) of 22 µM and an IC50 [8] of 18.9 µM. The IC50 (Plasmodium falciparum) was over 5 µM and the Ki (Rhodesain) was 36 nM.

In the case of `CN(C(=O)[C@H](Cc1ccccc1)NC(=O)c1ccc2c(c1)OCCO2)N(C#N)CCc1ccccc1`, the IC50 [4] is reported as 1.86 nM.

For `C/C(=N\N=C(\N)S)c1ccc(Nc2ccccc2)cc1`, the IC50 (Trypanosoma brucei [2]) was 4.5 µM and the IC50 [3] was 18000 nM.

Molecule `CS/C(S)=N/N=C(\C)c1ccccn1` has an IC50 (Trypanosoma brucei [2]) of 0.3 µM and an IC50 [3] of over 20000 nM.

Molecule `NC(=S)/N=N/c1c(O)[nH]c2ccc(I)cc12` has an IC50 [3] of 1000 nM.

With `CN(C(=O)[C@H](Cc1ccccc1)NC(=O)OCc1ccccc1)N(C#N)CCc1ccccc1` the IC50 [4] was 0.81 nM.

Molecule `CSc1cccc(NC(=O)Nc2sc3ccccc3c2Cl)c1` has an IC50 (Cruzipain) of under 10 µM and an IC50 [3] of under 10000 nM.

For `C[C@H](NC(=O)[C@H](Cc1ccccc1)NC(=O)OCc1ccccc1)C(=O)CCl`, the IC50 [5] was 21 µM.

In the case of `CC(C)C[C@H](NC(=O)c1ccc2c(c1)OCCO2)C(=O)N(C)N(C#N)Cc1ccccc1`, the IC50 [4] is reported as 0.33 nM.

With `N#Cc1nc(N2CCOCC2)nc(N(c2ccccc2F)C2CCCCC2)n1` the Ki [7] was 25 nM, the IC50 (L6) was 11.4 µM and the IC50 [8] was 15 µM. For the same molecule, the IC50 (Plasmodium falciparum) was over 5 µM and the Ki (Rhodesain) was 11 nM.

For `C/C(=N\NC(N)=S)c1cccc(/C(C)=N/NC(N)=S)c1`, the IC50 (Trypanosoma brucei [2]) was over 20 µM and the IC50 [3] was 330 nM.

With `C/C(=N\N=C(\N)S)c1cccc(-c2ccccc2)c1` the IC50 (Trypanosoma brucei [2]) was 12 µM and the IC50 [3] was 1100 nM.

In the case of `CN(C#N)N(C)C(=O)[C@H](Cc1ccccc1)NC(=O)OC(C)(C)C`, the IC50 [4] is reported as 0.06 nM.

For `CC(C)C[C@H](NC(=O)c1ccc2c(c1)OCCO2)C(=O)N(C)N(C#N)CCc1ccccc1`, the IC50 [4] was 0.71 nM.

Work on `O=C1C(=O)N(C(=O)OCc2ccccc2)c2ccccc21` yielded an IC50 [3] of 30000 nM.

`CCCCCN(C#N)N(C)C(=O)[C@H](Cc1ccccc1)NC(=O)OCc1ccccc1` gave an IC50 [4] of 0.06 nM, an EC50 [5] of 1400 nM and an EC50 [9] of 700 nM.

In the case of `CC(C)C[C@H](NC(=O)c1ccc2c(c1)OCCO2)C(=O)N(C)N(C)C#N`, the IC50 [4] is reported as 0.06 nM.

Work on `C/C(=N\N=C(\N)S)c1ccc(-c2ccccc2)cc1` yielded an IC50 (Trypanosoma brucei [2]) of 10 µM and an IC50 [3] of 90 nM.

Molecule `CC(C)(C)OC(=O)Nc1cccc(CNC(=O)c2ccc(C(=O)NC(=N)NC(=O)OCc3ccccc3)o2)c1` has a Ki [7] of 3930 nM, a Ki [3] of 5.29 µM and an IC50 [10] of 3.21 µM.

`O=C(N[C@@H](Cc1ccccc1)C(=O)N[C@H](/C=C/S(=O)(=O)CCc1ccccc1)CCc1ccccc1)OCc1ccccc1` showed a K (Trypanosoma brucei [1]) of 1.09 ×10⁷ /M/min.

`O=C(N[C@@H](Cc1ccccc1)C(=O)N[C@H](/C=C/S(=O)(=O)Cc1ccccc1)CCc1ccccc1)OCc1ccccc1` gave a K (Trypanosoma brucei [1]) of 5.35 ×10⁷ /M/min.

Molecule `C/C(=N\N=C(\N)S)c1cccc(Nc2ccccc2)c1` has an IC50 (Trypanosoma brucei [2]) of 8 µM and an IC50 [3] of 800 nM.

`C/C(=N\N=C(\N)S)c1ccc(Oc2ccccc2)cc1` gave an IC50 (Trypanosoma brucei [2]) of 3 µM and an IC50 [3] of 8000 nM.

Molecule `C/C(=N\N=C(\N)S)c1cccc(Oc2ccccc2)c1` has an IC50 (Trypanosoma brucei [2]) of 6 µM and an IC50 [3] of 550 nM.

Molecule `CN(C(=O)[C@H](Cc1ccccc1)NC(=O)OCc1ccccc1)N(C#N)Cc1ccccc1` has an IC50 [4] of 0.19 nM, an EC50 [5] of 1100 nM and an EC50 [9] of 400 nM.

`O=C(N[C@@H](Cc1ccccc1)C(=O)N[C@H](/C=C/S(=O)(=O)c1ccccc1)CCc1ccccc1)OCc1ccccc1` showed a K (Trypanosoma brucei [1]) of 1.61 ×10⁷ /M/min.
